Values quoted from earlier work as cited in paper PMC9851200, “Multiparameter phenotypic screening for endogenous TFEB and TFE3 translocation identifies novel chemical series modulating lysosome function” (Autophagy, 2022).

Columns and labels:
Design in all cases: method as in original PKIS2 published data
[1] = molecular target: T1, kinases (KINOMEscan panel) (Homo sapiens, UniProt Q9NRM7); settings: Published KINOMEscan; ref original PKIS2 published data; cited from earlier work
T1 sequence (Q9NRM7 1-1088): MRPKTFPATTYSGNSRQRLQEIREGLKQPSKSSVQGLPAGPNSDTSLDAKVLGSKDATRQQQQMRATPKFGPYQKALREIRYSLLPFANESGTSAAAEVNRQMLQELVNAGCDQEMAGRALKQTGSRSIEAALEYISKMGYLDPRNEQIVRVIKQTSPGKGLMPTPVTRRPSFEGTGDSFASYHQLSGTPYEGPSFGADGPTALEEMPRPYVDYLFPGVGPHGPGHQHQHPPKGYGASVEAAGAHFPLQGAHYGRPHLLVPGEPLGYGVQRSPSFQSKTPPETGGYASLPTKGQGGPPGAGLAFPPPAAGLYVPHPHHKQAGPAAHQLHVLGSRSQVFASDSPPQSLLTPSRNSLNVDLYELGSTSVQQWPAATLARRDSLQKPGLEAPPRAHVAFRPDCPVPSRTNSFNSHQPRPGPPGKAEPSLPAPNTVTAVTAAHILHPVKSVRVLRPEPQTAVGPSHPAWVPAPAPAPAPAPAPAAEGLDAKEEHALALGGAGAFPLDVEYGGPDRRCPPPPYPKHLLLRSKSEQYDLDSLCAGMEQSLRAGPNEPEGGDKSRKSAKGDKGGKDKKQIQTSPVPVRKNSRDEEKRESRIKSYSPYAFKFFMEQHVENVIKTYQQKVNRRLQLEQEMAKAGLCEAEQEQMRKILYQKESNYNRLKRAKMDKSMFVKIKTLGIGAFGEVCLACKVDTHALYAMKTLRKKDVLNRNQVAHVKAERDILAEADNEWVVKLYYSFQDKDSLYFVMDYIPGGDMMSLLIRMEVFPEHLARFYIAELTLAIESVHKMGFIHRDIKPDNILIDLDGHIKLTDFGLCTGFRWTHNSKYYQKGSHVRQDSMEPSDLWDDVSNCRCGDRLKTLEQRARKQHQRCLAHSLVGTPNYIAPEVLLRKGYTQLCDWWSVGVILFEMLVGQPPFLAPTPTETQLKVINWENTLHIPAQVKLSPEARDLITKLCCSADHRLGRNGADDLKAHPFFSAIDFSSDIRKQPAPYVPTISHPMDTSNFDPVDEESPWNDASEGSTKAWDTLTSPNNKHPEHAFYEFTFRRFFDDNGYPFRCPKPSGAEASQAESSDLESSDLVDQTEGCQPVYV

[2] = molecular target: T2, kinases (KINOMEscan panel) (Homo sapiens, UniProt P43403); settings: Published KINOMEscan; ref original PKIS2 published data; cited from earlier work
T2 sequence (P43403 1-619): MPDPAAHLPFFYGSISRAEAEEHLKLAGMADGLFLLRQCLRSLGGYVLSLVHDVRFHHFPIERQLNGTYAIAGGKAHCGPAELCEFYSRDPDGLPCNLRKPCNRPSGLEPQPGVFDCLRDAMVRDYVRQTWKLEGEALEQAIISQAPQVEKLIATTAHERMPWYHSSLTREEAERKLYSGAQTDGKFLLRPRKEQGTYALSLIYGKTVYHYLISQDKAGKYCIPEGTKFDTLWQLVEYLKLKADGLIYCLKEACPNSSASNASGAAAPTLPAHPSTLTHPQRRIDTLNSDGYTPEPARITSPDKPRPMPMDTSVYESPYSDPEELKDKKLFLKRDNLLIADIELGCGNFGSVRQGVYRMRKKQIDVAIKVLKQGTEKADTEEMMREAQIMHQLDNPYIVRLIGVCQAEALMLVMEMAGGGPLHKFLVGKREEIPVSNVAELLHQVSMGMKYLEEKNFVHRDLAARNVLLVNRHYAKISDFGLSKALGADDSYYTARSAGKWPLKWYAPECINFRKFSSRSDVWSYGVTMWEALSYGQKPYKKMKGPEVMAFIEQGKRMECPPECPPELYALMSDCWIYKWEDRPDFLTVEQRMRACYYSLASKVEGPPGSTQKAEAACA

[3] = molecular target: kinases (KINOMEscan panel) (Homo sapiens, UniProt Q96NX5); settings: CAMK1G; Published KINOMEscan; ref original PKIS2 published data; cited from earlier work
[4] = molecular target: T3, kinases (KINOMEscan panel) (Homo sapiens, UniProt Q96PN8); settings: kinase TSSK3; Published KINOMEscan; ref original PKIS2 published data; cited from earlier work
T3 sequence (Q96PN8 1-268): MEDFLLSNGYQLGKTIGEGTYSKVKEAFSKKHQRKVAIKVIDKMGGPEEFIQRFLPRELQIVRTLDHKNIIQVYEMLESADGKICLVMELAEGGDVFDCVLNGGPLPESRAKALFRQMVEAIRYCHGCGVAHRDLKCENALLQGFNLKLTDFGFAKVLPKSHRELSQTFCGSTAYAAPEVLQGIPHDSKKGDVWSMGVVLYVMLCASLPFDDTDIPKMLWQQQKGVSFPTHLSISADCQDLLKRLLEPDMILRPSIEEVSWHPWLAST

[5] = molecular target: T4, kinases (KINOMEscan panel) (Homo sapiens, UniProt Q8NE63); settings: kinase HIPK4; Published KINOMEscan; ref original PKIS2 published data; cited from earlier work
T4 sequence (Q8NE63 1-616): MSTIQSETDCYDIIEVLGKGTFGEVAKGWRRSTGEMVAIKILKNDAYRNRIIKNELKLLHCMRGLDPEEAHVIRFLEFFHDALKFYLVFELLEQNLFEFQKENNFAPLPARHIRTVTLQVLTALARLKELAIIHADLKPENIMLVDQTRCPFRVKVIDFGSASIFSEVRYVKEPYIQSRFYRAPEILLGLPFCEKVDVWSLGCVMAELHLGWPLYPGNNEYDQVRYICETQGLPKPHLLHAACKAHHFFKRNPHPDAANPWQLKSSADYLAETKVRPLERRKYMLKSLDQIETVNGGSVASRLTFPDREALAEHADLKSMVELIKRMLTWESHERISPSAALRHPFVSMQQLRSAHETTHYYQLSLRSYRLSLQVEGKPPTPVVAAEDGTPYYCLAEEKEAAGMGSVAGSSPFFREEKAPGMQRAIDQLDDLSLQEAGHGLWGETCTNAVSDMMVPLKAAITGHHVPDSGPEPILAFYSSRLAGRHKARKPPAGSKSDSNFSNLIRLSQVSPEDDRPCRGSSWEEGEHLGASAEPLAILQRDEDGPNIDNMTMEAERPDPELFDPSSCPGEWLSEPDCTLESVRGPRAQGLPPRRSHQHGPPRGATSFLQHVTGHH

kinases (KINOMEscan panel) (Homo sapiens, UniProt Q96NX5), sequence (Q96NX5 whole entry): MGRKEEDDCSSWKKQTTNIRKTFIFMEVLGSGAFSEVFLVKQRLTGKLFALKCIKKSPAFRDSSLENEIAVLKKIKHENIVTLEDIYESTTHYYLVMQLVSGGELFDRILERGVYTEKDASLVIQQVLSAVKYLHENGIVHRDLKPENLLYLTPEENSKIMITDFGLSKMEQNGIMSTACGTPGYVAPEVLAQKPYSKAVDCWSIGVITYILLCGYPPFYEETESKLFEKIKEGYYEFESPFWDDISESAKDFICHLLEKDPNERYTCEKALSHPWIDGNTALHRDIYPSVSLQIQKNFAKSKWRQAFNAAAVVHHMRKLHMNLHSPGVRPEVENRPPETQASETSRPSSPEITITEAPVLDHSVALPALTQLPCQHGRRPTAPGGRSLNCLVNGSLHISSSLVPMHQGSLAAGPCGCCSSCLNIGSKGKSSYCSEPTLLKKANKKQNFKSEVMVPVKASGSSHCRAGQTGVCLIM

Cc1cccc(-c2nc(Nc3ccncc3)c3ccccc3n2)n1 [NK215]
KINOMEscan LATS2 [1]: 0 | KINOMEscan ZAP70 [2]: 0 | KINOMEscan CAMK1G [3]: 0 | KINOMEscan TSSK3 [4]: 0 | KINOMEscan HIPK4 [5]: 19
